Assay [1] has as its target T1, Tyrosine-protein phosphatase non-receptor type 1 (Homo sapiens) (UniProt P18031).
T1 sequence (whole entry): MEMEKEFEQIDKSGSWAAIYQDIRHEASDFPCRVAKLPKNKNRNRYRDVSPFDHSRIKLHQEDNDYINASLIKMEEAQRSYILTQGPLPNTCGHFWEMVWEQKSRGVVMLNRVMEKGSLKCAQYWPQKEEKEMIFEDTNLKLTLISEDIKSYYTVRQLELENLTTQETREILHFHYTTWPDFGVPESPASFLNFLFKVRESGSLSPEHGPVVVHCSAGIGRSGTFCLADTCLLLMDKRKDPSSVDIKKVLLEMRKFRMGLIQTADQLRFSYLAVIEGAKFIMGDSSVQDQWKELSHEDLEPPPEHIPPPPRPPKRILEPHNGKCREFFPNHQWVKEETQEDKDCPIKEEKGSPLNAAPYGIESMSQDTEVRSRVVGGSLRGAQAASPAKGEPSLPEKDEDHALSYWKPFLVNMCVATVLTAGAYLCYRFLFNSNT
As to the kind of experiment: Activity of PTP1B.

Assay [2] is described as follows: Activity of alkaline phosphatase at 2 uM measured every 2 mins from up to 30 mins by fluorometric analysis.
Assay [3] is described as follows: Ratio of Vmax to Km for alkaline phosphatase.
Assay [4] in a line: Activity of alkaline phosphatase by Michaelis-Menten equation analysis.
Assay [5] addresses Serine/threonine-protein phosphatase PP1-alpha catalytic subunit (Homo sapiens) (UniProt P62136). In words: Activity of PP1 alpha.

The structures appear in SMILES notation. Activity calls are given as the source filed them. No cut-off for these calls is given here.

The record followed here is ChEMBL document CHEMBL1817605, “Development of a highly selective fluorescence probe for alkaline phosphatase” (Bioorg Med Chem Lett, 2011).

Sequence of Serine/threonine-protein phosphatase PP1-alpha catalytic subunit (Homo sapiens) (P62136 whole entry): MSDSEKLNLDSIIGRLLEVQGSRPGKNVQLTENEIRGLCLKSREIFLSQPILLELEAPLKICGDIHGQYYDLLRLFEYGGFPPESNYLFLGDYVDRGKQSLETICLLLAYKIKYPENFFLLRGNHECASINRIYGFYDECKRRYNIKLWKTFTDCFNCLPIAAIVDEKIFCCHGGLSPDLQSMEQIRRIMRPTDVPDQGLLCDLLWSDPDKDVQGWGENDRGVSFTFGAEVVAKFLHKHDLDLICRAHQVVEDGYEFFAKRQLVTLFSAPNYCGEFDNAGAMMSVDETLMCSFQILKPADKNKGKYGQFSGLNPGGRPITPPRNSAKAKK

For `O=C1OC2(c3ccc(OP(=O)(O)O)cc3Oc3cc(OP(=O)(O)O)ccc32)c2ccccc21`, the outcome in assay [1] and in assay [2] was Active.

Regarding `COc1ccc(-c2c3ccc(=O)cc-3oc3cc(OP(=O)(O)O)ccc23)c(C)c1`, the result in assay [1], in assay [5] and in assay [2] was Active. Moreover, in assay [3], the Vmax/Km was determined as 0.026 min⁻¹. The Km in assay [4] was 0.96 µM. For the same compound, the Vmax in assay [4] amounted to 0.025 µM/min.

As for `COc1ccc(-c2c3ccc(=O)cc-3oc3cc(OCOP(=O)(O)O)ccc23)c(C)c1`, the outcome in assay [1] was inactive. The Vmax/Km in assay [3] worked out at 0.043 min⁻¹. In assay [4], the Km worked out at 0.77 µM and the Vmax came to 0.033 µM/min. For the same compound, the outcome in assay [5] was inactive. Further, in assay [2], the result was Active.
